Experimental findings from patent US9156840B2, “D2 antagonists, methods of synthesis and methods of use” (ALTOS THERAPEUTICS, LLC, priority 2010, dated 2015) are described below.

The assay deals with T1, human D2 receptor (Homo sapiens, UniProt P14416).
T1 construct: expressed in transfected cells; cDNA from Origene clones TC308892 and SC123573
As to the kind of experiment: D2 receptor radioligand binding assay (membranes of HEK-293 cells expressing human D2 receptor). The settings on record: radioligand displacement, HEK293 membranes, 37° C. for 120 minutes; read-out: Affinity Score (IC50 values for D2 on a scale of 1 through 5). The protocol: Affinity for the dopamine D2 receptor was tested in vitro, and the following describes the construction of cell lines expressing human D2 receptor, as well as the binding assays themselves.
Establishment of Stable Cell Lines Expressing Either the Cloned Human D2S Receptor or the Cloned Human D2L Receptor.
The human D2 receptor exists in two isoforms: the short form (D2S) and the long form (D2L). The two isoforms are generated from the D2 gene by alternative splicing and the D2L isoform differs from the D2S isoform by the addition of 29 amino acids in the third intracellular loop of its protein structure.
To establish HEK-293 cell lines stably expressing either the human D2S or the human D2L, the human dopamine D2S receptor (Genebank Accession Number NM_016574) and human dopamine D2L receptor (Genebank Accession Number BC021195) were amplified by PCR from Origene cDNA clones TC308892 and SC123573 (respectively) using the following primers: 5-[…]-3 (SEQ ID NO: 1) sense and 5-[…]-3 (SEQ ID NO: 2) antisense. The resulting PCR products were respectively cloned into pENTR-D-TOPO (Invitrogen), sequenced and then transferred into the pCDNA3.2-DEST (Invitrogen) using the LR-clonasc gateway reaction (Invitrogen) and sequenced again to verify the genes sequence.
HEK293 cells were maintained in Eagles Minimum Essential Medium (MEM) supplemented with 0.292 g/L L-glutamine and 10% (v/v) fetal calf serum at 37° C. in a 5% CO2 humidified atmosphere. Cells were grown to 60-80% confluency in 10 cm dishes before transfection. Transfection of the D2S and D2L containing pcDNA3.2-DEST into HEK-293 cells were performed using Lipofectamine 2000 (Invitrogen). Transfected cells were seeded and diluted 2 days after transfection and maintained in culture medium supplemented with 500 μg/mL G418. The HEK-293 cell line expressing the huD2S (R2D2S) and the huD2L (R2D2L) were maintained in culture medium supplemented with 500 μg/mL G418.
D2 Receptor Binding Assays
HEK293 cells were in Eagles Minimum Essential Medium (MEM) supplemented with 10% FBS, 0.292 g/liter L-glutamine, 10^5 units/liter penicillin, 100 mg/liter streptomycin and […] Geneticin at 37° C. in a 5% CO2 humidified atmosphere. Cells were grown to 80-90% confluence and harvested with cell stripper (Cellgro #25-056-CI). Cells were then washed with PBS (2×). Cells were either pelleted and frozen at −80° C. or membranes were prepared immediately.
Cells from pellet were resuspended in homogenization buffer (15 mM Tris*HCl, 2 mM MgCl2*6H2O, 0.3 mM EDTA, 1 mM EGTA pH 7.4 @ 4° C.). Cells were then homogenized using a Polytron (PT 1200) homogenizer at setting 6 for 10 seconds. Crude membranes were pelleted at 39, 412 g for 15 min, at 4° C. (2×) in a Sorval RC6 plus centrifuge. Membranes were finally resuspended in resuspension buffer (50 mM Tris*HCl, 120 mM NaCl, 10 mM MgCl2*6H2O, 1 mM EDTA pH 7.4 @ 4° C.) and sonicated (Fisher Sonic Dismembrator) at setting 5 for 10 seconds.
The radioligand binding assays were conducted in microtiter plates (Costar #3961) with a final volume of 1.0 mL.
The membranes were thawed at room temperature, briefly homogenized using a sonicator, diluted in assay buffer and kept on wet ice until being added to the assay plate. Membranes were diluted to a final target tissue concentration of 10 μg protein per well. The specific binding should be greater than 80% with less than 10% total radioligand bound to minimize ligand depletion errors.
First compound of the invention (50 μL) or assay buffer (50 mM Tris*HCl, 120 mM NaCl, 5 mM MgCl2*6H2O, 1 mM EDTA, 5 mM KCl pH 7.4 @37° C. plus 0.025% BSA), buffer (700 μL) and then membrane (200 μL) were added to the deep well assay plate, which was then shaken for 10 minutes. Finally, radioligand (50 μL) was added.
The assay plates were incubated at 37° C. for 120 minutes.
The assay plate were filtered over 0.3% PEI pretreated glass fiber filtermats (GF/C) using a Packard Filtermate cell harvester. […]

Where a name gives a salt, the structure may show the parent alone.

T1 sequence (P14416 whole entry): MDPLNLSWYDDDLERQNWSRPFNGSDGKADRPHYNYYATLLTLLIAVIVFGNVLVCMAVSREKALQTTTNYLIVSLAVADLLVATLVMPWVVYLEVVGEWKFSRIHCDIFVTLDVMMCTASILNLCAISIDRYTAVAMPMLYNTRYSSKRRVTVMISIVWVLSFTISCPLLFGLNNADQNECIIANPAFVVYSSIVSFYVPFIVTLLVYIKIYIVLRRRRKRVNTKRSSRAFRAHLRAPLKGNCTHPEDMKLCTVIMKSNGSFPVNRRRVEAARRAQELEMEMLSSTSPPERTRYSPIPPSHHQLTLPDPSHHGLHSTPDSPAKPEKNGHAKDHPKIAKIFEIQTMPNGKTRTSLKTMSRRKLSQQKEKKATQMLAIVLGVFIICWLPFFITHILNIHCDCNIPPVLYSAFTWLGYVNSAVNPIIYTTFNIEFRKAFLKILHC

With `O=C(O)c1ccccc1CN1CN(c2ccc(F)cc2)C2(CCN(CCCn3c(=O)n(C4CC4)c4ccccc43)CC2)C1=O` [Compound 159, 2-((8-(3-(3-cyclopropyl-2-oxo-2,3-dihydro-1H-benzo[d]imidazol-1-yl)propyl)-1-(4-fluorophenyl)-4-oxo-1,3,8-triazaspiro[4.5]decan-3-yl)methyl)benzoic acid], the IC50 was less than 10 nM.
With `O=C(O)c1cccc(CN2CN(c3ccccc3)C3(CCN(CCCC4C(=O)Nc5ccccc54)CC3)C2=O)c1` (stereo not shown) [Compound 160, 3-((4-oxo-8-(3-(2-oxoindolin-3-yl)propyl)-1-phenyl-1,3,8-triazaspiro[4.5]decan-3-yl)methyl)benzoic acid, hydrochloride], the IC50 is less than 10 nM.
On to `O=C(O)c1ccccc1CN1CN(c2ccc(F)cc2)C2(CCN(CCCN3C(=O)C4(CC4)c4ccccc43)CC2)C1=O` [Compound 161, 2-((1-(4-Fluorophenyl)-4-oxo-8-(3-(2′-oxospiro[cyclopropane-1,3′-indoline]-1′-yl)propyl)-1,3,8-triazaspiro[4.5]decan-3-yl)methyl)benzoic acid], for which the IC50 was less than 10 nM.
On to `CC1(F)C(=O)N(CCCN2CCC3(CC2)C(=O)N(Cc2ccccc2C(=O)O)CN3c2ccccc2)c2ccccc21` (stereo not shown) [Compound 162, 2-((8-(3-(3-Fluoro-3-methyl-2-oxoindolin-1-yl)propyl)-4-oxo-1-phenyl-1,3,8-triazaspiro[4.5]decan-3-yl)methyl)benzoic acid], for which the IC50 was less than 10 nM.
The same measure for `CC1(F)C(=O)N(CCCN2CCC3(CC2)C(=O)N(Cc2ccccc2C(=O)O)CN3c2ccc(F)cc2)c2ccccc21` (stereo not shown) [Compound 163]: less than 10 nM.
The same measure for `CC1(F)C(=O)N(CCCN2CCC3(CC2)C(=O)N(Cc2cccc(C(=O)O)c2)CN3c2ccc(F)cc2)c2ccccc21` (stereo not shown) [Compound 164, 3-((8-(3-(3-Fluoro-3-methyl-2-oxoindolin-1-yl)propyl)-1-(4-fluorophenyl)-4-oxo-1,3,8-triazaspiro[4.5]decan-3-yl)methyl)benzoic acid]: less than 10 nM.
The value for `O=C(O)[C@@H](c1ccccc1)N1CN(c2ccccc2)C2(CCN(CCCN3C(=O)Cc4ccccc43)CC2)C1=O` [Compound 166, (R)-2-(4-oxo-8-(3-(2-oxoindolin-1-yl)propyl)-1-phenyl-1,3,8-triazaspiro[4.5]decan-3-yl)-2-phenylacetic acid] was less than 10 nM.
Regarding `O=C(CCCN1CCC2(CC1)C(=O)N([C@@H](C(=O)O)c1ccccc1)CN2c1ccccc1)c1ccccc1` [Compound 167, (R)-2-(4-oxo-8-(4-oxo-4-phenylbutyl)-1-phenyl-1,3,8-triazaspiro[4.5]decan-3-yl)-2-phenylacetic acid], the IC50 was less than 10 nM.
Take `O=C(CCCN1CCC2(CC1)C(=O)N([C@H](C(=O)O)c1ccccc1)CN2c1ccccc1)c1ccccc1` [Compound 168, (S)-2-(4-oxo-8-(4-oxo-4-phenylbutyl)-1-phenyl-1,3,8-triazaspiro[4.5]decan-3-yl)-2-phenylacetic acid]: the IC50 is less than 10 nM.
The same measure for `O=C(O)[C@H](c1ccccc1)N1CN(c2ccccc2)C2(CCN(CCCN3C(=O)Cc4ccccc43)CC2)C1=O` [Compound 170, (S)-2-(4-oxo-8-(3-(2-Oxoindolin-1-yl)propyl)-1-phenyl-1,3,8-triazaspiro[4.5]decan-3-yl)-2-phenylacetic acid]: less than 10 nM; for `CC1(C)C(=O)N(CCCN2CCC3(CC2)C(=O)N(Cc2ccc(C(=O)O)cc2)CN3c2ccccc2)c2ccccc21` [Compound 171, 4-((8-(3-(3,3-dimethyl-2-oxoindolin-1-yl)propyl)-4-oxo-1-phenyl-1,3,8-triazaspiro[4.5]decan-3-yl)methyl)benzoic acid, hydrochloride]: less than 10 nM; for `O=C(O)c1cccc(CN2CN(c3ccccc3)C3(CCN(CCCC(O)c4ccccc4)CC3)C2=O)c1` (stereo not shown) [Compound 173, 3-((8-(4-hydroxy-4-phenylbutyl)-4-oxo-1-phenyl-1,3,8-triazaspiro[4.5]decan-3-yl)methyl)benzoic acid]: less than 10 nM.
As to `O=C(O)c1cccc(CN2CN(C3CCCCC3)C3(CCN(CCCC(=O)c4ccccc4)CC3)C2=O)c1` [Compound 176, 3-((1-cyclohexyl-4-oxo-8-(4-oxo-4-phenylbutyl)-1,3,8-triazaspiro[4.5]decan-3-yl)methyl)benzoic acid, hydrochloride], the IC50 was less than 10 nM.
For the molecule `O=C(O)c1cccc(N2CN(c3ccccc3)C3(CCN(CCCC(=O)c4ccccc4)CC3)C2=O)c1` [Compound 177, 3-(4-Cho-8-(4-oxo-4-phenylbutyl)-1-phenyl-1,3,8-triazaspiro[4.5]decan-3-yl)benzoic acid], the IC50 is less than 10 nM.
Consider `COC(=O)c1cccc(N2CN(c3ccccc3)C3(CCN(CCCC(=O)c4ccccc4)CC3)C2=O)c1` [Compound 179, Methyl 3-(4-oxo-8-(4-oxo-4-phenylbutyl)-1-phenyl-1,3,8-triazaspiro[4.5]decan-3-yl)benzoate], for which the IC50 is less than 10 nM.
The same measure for `O=C(CCCN1CCC2(CC1)C(=O)N(c1ccccc1C(=O)O)CN2c1ccccc1)c1ccccc1` [Compound 180, 2-(4-oxo-8-(4-oxo-4-phenylbutyl)-1-phenyl-1,3,8-triazaspiro[4.5]decan-3-yl)benzoic acid]: less than 10 nM; for `O=C(O)c1ccc(N2CN(c3ccccc3)C3(CCN(CCCC(=O)c4ccccc4)CC3)C2=O)cc1` [Compound 182, 4-(4-Cho-8-(4-oxo-4-phenylbutyl)-1-phenyl-1,3,8-triazaspiro[4.5]decan-3-yl)benzoic acid, hydrochloride]: less than 10 nM; for `CS(=O)(=O)Nc1ccc(CN2CN(c3ccccc3)C3(CCN(CCCC(=O)c4ccccc4)CC3)C2=O)cc1` [Compound 186, N-(4-((4-oxo-8-(4-oxo-4-phenylbutyl)-1-phenyl-1,3,8-triazaspiro[4.5]decan-3-yl)methyl)phenyl)methanesulfonamide]: less than 10 nM.
Consider `CS(=O)(=O)Nc1cccc(N2CN(c3ccccc3)C3(CCN(CCCC(=O)c4ccc(F)cc4)CC3)C2=O)c1` [Compound 211], for which the IC50 was less than 10 nM.
The same measure for `CS(=O)(=O)Nc1cccc(CN2CN(c3ccccc3)C3(CCN(CCCN4C(=O)C5(CC5)c5ccccc54)CC3)C2=O)c1` [Compound 212, N-(3-((4-Oxo-8-(3-(2′-oxospiro[cyclopropane-1,3′-indoline]-1′-yl)propyl)-1-phenyl-1,3,8-triazaspiro[4.5]decan-3-yl)methyl)phenyl)methanesulfonamide]: less than 10 nM; for `CS(=O)(=O)Nc1cccc(CN2CN(c3ccccc3)C3(CCN(CCCN4C(=O)Cc5ccccc54)CC3)C2=O)c1` [Compound 213, N-(3-((4-Cho-8-(3-(2-oxoindolin-1-yl)propyl)-1-phenyl-1,3,8-triazaspiro[4.5]decan-3-yl)methyl)phenyl)methanesulfonamide]: less than 10 nM.
Regarding `CS(=O)(=O)Nc1ccc(N2CN(c3ccccc3)C3(CCN(CCCC(=O)c4ccc(F)cc4)CC3)C2=O)cc1` [Compound 214, N-(4-(8-(4-(4-Fluorophenyl)-4-oxobutyl)-4-oxo-1-phenyl-1,3,8-triazaspiro[4.5]decan-3-yl)phenyl)methanesulfonamide], the IC50 is less than 10 nM.
